Experimental data taken from ChEMBL document CHEMBL5465560, “Selectivity Literature for EUbOPEN Chemogenomic Library” (2024).
Blank lines part the entries; values can stand above or below the molecule they belong to.

Experiments:
[1] = target: Casein kinase I isoform alpha (Homo sapiens, UniProt P48729); experiment: Selectivity interaction (ActivX KiNativ screen (kinase selectivity in THP-1 cell lysates)) EUB0000639a CSNK1A1; format: subcellular; conditions: lysate, at 0.01 µM
[2] = target: T1, Serine/threonine-protein kinase ULK3 (Homo sapiens) (UniProt Q6PHR2); experiment: Selectivity interaction (Kinase panel (DSF assay)) EUB0001559a ULK3
T1 sequence (whole entry): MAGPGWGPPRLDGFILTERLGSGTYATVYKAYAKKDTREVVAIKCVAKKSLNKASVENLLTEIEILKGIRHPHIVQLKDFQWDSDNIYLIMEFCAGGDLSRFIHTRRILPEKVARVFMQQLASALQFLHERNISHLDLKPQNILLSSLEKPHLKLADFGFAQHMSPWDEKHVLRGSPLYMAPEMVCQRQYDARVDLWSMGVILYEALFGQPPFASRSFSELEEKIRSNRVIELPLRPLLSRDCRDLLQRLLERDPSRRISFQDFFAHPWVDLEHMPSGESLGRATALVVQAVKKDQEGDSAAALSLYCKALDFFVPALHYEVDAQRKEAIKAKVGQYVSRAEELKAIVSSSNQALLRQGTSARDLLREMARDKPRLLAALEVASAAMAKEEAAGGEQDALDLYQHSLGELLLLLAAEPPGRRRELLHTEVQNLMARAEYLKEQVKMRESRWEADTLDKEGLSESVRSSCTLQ

[3] = target: T2, Histone-arginine methyltransferase CARM1 (Homo sapiens) (UniProt Q86X55); conditions: KMS-11, at 3 µM
T2 sequence (whole entry): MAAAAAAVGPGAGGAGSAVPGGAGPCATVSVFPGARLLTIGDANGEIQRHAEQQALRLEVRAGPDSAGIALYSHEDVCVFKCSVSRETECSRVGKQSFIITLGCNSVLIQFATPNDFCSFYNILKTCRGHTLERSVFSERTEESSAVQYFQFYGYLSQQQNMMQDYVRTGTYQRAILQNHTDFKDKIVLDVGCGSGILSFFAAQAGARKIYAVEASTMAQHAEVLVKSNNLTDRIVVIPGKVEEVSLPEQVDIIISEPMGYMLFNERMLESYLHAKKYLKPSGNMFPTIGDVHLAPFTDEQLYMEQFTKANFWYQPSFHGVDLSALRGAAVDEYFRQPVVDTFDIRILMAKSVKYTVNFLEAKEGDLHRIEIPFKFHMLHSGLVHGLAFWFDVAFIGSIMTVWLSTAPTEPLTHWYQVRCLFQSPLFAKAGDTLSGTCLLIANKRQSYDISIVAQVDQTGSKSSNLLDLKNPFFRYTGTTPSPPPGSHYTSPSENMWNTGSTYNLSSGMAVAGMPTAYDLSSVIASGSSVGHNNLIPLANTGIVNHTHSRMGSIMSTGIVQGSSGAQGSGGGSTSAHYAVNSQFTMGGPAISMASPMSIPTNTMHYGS

[4] = tested on: Epidermal growth factor receptor (Homo sapiens), P00533 [T790M]; experiment: Selectivity interaction (KinomeScan (DiscoverX)) EUB0000092b EGFR; conditions: at 10 µM
[5] = target: T3, Serine/threonine-protein kinase DCLK2 (Homo sapiens) (UniProt Q8N568); conditions: at 10 µM
T3 sequence (whole entry): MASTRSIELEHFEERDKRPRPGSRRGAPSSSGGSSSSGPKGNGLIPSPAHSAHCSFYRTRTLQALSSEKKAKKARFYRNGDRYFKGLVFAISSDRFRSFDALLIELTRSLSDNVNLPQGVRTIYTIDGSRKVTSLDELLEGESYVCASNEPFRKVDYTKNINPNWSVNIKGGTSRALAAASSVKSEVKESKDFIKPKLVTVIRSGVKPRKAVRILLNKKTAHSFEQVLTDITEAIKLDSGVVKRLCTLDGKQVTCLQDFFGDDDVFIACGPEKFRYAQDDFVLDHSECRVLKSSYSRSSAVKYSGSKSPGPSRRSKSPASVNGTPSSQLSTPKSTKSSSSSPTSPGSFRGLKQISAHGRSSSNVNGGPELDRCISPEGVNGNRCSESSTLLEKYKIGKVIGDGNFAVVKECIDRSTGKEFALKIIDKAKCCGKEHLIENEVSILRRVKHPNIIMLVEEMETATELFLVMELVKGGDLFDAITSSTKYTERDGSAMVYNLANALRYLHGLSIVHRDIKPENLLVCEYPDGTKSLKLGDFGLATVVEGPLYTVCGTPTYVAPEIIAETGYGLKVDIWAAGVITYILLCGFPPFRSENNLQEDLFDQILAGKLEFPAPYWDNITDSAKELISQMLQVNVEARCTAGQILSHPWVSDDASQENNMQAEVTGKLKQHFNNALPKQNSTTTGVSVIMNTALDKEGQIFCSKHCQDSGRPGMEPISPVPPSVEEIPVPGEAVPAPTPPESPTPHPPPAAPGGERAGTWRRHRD

[6] = target: Tyrosine-protein kinase JAK1 (Homo sapiens, UniProt P23458); experiment: Selectivity interaction (KinomeScan (DiscoverX)) EUB0001619a JAK1; conditions: at 1 µM
[7] = target: T4, Discoidin domain-containing receptor 2 (Homo sapiens) (UniProt Q16832); experiment: Selectivity interaction (KinomeScan (DiscoverX)) EUB0001619a DDR2; conditions: at 1 µM
T4 sequence (whole entry): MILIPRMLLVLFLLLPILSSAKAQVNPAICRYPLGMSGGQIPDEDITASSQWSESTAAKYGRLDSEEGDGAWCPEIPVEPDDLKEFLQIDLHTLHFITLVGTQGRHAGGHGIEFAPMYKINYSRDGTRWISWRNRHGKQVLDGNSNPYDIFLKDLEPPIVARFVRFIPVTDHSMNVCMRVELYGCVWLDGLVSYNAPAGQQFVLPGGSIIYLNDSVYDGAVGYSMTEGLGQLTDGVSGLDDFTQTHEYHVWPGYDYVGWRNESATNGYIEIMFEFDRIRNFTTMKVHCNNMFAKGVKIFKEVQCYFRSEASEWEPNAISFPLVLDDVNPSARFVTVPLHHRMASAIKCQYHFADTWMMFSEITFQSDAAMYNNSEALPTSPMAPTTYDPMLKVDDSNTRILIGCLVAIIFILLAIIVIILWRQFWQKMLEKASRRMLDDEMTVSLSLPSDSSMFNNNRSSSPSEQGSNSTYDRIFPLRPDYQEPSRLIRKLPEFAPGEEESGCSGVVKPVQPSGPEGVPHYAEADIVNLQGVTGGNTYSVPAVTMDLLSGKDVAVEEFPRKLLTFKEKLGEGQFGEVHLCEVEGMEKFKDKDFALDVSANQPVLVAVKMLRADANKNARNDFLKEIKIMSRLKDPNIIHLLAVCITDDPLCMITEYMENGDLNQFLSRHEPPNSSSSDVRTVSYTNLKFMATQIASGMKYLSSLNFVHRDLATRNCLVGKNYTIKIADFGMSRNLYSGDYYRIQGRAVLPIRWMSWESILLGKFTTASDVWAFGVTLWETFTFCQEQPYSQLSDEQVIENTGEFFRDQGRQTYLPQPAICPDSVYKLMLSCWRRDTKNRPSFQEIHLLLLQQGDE

Tyrosine-protein kinase JAK1, sequence (P23458 whole entry, the tested form may be a part): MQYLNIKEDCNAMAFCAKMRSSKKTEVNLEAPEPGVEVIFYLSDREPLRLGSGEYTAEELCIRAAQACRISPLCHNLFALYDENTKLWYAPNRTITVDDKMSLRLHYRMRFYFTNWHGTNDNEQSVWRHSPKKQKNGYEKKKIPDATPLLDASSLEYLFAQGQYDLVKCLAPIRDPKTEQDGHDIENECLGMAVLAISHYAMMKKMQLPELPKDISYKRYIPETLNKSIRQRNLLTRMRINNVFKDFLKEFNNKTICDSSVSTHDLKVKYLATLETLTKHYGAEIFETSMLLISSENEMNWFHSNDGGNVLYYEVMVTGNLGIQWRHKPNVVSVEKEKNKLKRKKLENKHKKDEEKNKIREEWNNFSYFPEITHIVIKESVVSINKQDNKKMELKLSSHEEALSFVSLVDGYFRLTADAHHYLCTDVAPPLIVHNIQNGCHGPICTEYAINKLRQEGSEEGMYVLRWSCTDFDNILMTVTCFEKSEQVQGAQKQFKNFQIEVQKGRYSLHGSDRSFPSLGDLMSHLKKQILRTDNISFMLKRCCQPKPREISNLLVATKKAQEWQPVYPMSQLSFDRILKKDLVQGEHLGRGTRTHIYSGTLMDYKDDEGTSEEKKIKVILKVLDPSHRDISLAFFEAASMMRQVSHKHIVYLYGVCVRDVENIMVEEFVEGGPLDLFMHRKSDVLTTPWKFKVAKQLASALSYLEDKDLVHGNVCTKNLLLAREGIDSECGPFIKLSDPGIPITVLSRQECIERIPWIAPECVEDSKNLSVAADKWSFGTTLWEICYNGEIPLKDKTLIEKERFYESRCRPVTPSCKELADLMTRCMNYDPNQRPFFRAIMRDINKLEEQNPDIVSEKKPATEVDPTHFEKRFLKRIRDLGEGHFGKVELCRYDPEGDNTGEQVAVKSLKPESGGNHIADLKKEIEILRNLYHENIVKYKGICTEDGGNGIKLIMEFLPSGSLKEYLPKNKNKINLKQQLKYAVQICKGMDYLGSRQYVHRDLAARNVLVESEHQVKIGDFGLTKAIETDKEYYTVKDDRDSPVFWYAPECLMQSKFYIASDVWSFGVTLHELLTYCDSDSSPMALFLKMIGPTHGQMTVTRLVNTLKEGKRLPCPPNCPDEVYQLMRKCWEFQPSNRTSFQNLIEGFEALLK
Casein kinase I isoform alpha, sequence (P48729 2-337 limits assumed): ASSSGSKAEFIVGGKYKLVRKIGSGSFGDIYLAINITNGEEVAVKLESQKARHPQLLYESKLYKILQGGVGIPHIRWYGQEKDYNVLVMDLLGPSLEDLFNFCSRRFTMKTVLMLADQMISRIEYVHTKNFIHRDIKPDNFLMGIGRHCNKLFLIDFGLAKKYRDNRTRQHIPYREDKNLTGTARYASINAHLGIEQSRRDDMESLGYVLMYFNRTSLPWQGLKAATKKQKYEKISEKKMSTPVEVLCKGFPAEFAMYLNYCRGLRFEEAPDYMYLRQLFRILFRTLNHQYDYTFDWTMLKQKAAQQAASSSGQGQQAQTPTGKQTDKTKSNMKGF
Epidermal growth factor receptor (Homo sapiens), P00533 [T790M], sequence (P00533 whole entry T790M): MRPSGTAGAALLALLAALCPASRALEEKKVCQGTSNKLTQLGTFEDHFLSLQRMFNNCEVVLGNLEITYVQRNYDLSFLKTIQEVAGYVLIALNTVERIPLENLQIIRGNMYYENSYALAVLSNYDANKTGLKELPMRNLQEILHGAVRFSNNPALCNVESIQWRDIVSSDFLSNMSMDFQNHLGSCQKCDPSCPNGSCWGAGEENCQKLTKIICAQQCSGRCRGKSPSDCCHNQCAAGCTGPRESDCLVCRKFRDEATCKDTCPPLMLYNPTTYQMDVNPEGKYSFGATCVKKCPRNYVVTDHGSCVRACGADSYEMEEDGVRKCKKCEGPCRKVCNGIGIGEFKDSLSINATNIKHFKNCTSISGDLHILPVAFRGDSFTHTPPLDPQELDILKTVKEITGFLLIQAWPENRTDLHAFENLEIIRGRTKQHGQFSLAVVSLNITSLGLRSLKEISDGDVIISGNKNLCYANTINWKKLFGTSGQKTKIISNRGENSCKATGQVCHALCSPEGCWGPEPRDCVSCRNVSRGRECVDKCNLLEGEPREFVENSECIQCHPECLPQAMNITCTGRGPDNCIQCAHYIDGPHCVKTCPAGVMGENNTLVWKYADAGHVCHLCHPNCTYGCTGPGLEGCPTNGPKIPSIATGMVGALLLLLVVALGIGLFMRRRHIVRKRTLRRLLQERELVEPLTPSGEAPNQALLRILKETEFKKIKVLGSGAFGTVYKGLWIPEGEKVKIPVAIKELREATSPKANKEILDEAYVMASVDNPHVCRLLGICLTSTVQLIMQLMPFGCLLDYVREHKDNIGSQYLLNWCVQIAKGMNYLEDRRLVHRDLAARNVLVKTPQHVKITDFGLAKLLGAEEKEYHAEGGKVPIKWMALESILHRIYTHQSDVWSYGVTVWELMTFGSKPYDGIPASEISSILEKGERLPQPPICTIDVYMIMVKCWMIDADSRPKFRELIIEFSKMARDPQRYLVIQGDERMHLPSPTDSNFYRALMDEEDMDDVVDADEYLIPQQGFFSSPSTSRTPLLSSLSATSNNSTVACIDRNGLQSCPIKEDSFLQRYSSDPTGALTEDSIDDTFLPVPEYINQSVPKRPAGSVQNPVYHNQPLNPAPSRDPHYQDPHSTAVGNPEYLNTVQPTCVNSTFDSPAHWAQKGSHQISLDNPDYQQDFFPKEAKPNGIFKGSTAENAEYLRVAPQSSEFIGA

SMILES: CCC(=O)N1CCN(c2ccc(-n3c(=O)ccc4cnc5ccc(-c6cnc7ccccc7c6)cc5c43)cc2C(F)(F)F)CC1
% of control [4]: 100%

SMILES: Cc1cc([C@@H](C)Nc2ccccc2C(=O)O)c2nc(N3CCOCC3)cc(=O)n2c1 [AZD-6482]
% of control [5]: 100%

SMILES: N#Cc1cccc(-c2c[nH]c3ncnc(N4CCOCC4)c23)c1
% of control [6]: 94%
% of control [7]: 71%

Further lines, results first:

% of inhibition [1]: 2.1%
SMILES: CC[C@@H]1[C@H](F)C(=O)N[C@@H]1COc1nccc2cc(C(N)=O)c(OC)cc12 [ZIMLOVISERTIB]

dTM [2]: -0.5 K
SMILES: CN(C(=O)c1cnn2cccnc12)c1cc2c(cc1N1CCOCC1)C(=O)N(C[C@@H](F)C(C)(C)O)C2

% of growth rate [3]: -17.2%
SMILES: CNCCN1CCC(c2cc(CN(C)C(=O)c3cccc(Oc4ccccc4)c3)ccn2)CC1
